Source: patent US11434205B2, “Substituted imidazole carboxylate derivatives and the use thereof” (priority 2018, dated 2022)
Like-named read-outs stand apart in the source and are kept apart here.

Tests used:
rats [1] = type: in vivo, rat; conditions: rats of the MAP/HR figures, 2×ED50, tail vein
rats [2] = conditions: continuous tail vein infusion at 2×MIR, LORR maintained 1 hour
Method: Pharmacological Effects of the Compounds on Continuous Infusion in Rats
Adult male Sprague-Dawley rats with body weight ranging from 250 to 300 gm were selected for continuous infusion test. […] Time to recovery of righting reflex from stopping infusion, and time to fully awake from stopping infusion were recorded.

rats [3] = system: rats
Method: Adult male Sprague-Dawley rats (250-300 g) were selected for the experiment. […] The anesthesia effects of the compounds were assessed in rats using a LORR assay and a period >30 s was considered as an indicator of general anesthesia. Then the up and down method was used to determine 50% effective dose (ED50). The drugs were administered through the tail vein of rats in a volume of 0.6 mL and at a rate of 0.1 mL/s.

rats [4] = assay: Loss of righting reflexes (LORR) assay in rats, ED50 by up and down method; type: in vivo, rat; conditions: tail vein, class symbols; for ED50: Rattus norvegicus
Method in brief: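 Adult male Sprague-Dawley rats (250-300 g) dosed i.v. via tail vein at 0.1 mL/s. Anesthesia scored as loss of righting reflex lasting >30 s; ED50 derived by up-and-down method.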

rats [5] = assay: Pharmacological characteristics at equivalent doses (2×ED50) in rats; conditions: 2×ED50, tail vein; for Adverse reactions: Red urine (incidence): DMSO solution (DMSO alone 10/10); for Onset time: time of LORR; for Adverse reactions: Tremor (incidence): animals affected/animals
Method in brief: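 Adult male Sprague-Dawley rats (250-300 g, n=8) received each drug at twice its ED50 via tail vein (0.6 mL at 0.1 mL/s). Onset of anesthesia taken as time to LORR.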

[6] = system: secretion of corticosterone, H295R cell line; assay: cells; type: cell-based; conditions: for EC50: read-out: EC50 (Corticosterone)
Method: (§1) The Effects of the Compounds on Adrenocortical Function In Vitro Test
(§2) Then secretion of the cortisol and corticosterone in the supernatant, was measured using HPLC-MS/MS method to determine whether the compounds of the present invention had adrenotoxic potential.

[7] = system: secretion of cortisol, H295R cell line; assay: cells; type: cell-based; conditions: for EC50: read-out: EC50 (Cortisol)
Method: as §1, §2

rats [8] = type: in vivo, rat; conditions: rats of the MAP/HR figures, 2×ED50, tail vein; same value in min
Method in brief: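 Rats implanted with telemetry (left ventricular and abdominal aortic catheters, ECG leads) at least one week before recording; compounds given via lateral tail-vein catheter. MAP and HR sampled every 15 s for 30 min before and after dosing to judge hemodynamic stability.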

[9] = H295R cell line, 0.1-10000 nM, HPLC-MS/MS, Table D3
[10] = H295R cell line, 0.1-10000 nM, HPLC-MS/MS, Table E3

Row | SMILES | recovery time of the test animals' righting reflex (rats [1]) | Onset time (rats [2]; Table D4) | Recovery time after stopping infusion (rats [2]; Table D4) | Types and incidence of adverse reactions (rats [2]; Table D4) | Approximate therapeutic index (rats [3]) | Minimal lethal dose (rats [3]) | ED50 (rats [4]) | Righting reflex duration (rats [5]) | Adverse reactions: Red urine (incidence) (rats [5]) | Onset time (rats [5]) | Corticosterone as an indicator to determine the presence of inhibition [6, 9] | EC50 ([6]; Homo sapiens, NCI-H295R) | Cortisol as an indicator to determine the presence of inhibition [7, 9] | EC50 ([7]; Homo sapiens, NCI-H295R) | recovery time of the test animals' righting reflex (rats [8]) | Onset time (rats [2]; Table E4) | Recovery time after stopping infusion (rats [2]; Table E4) | Types and incidence of adverse reactions (rats [2]; Table E4) | Corticosterone as an indicator to determine the presence of inhibition [6, 10] | Cortisol as an indicator to determine the presence of inhibition [7, 10] | further results
1 | CC#CC1(OC(=O)c2cncn2[C@H](C)c2ccccc2)CCCCC1 [Compound D40] | 441 s | 2 to 3 min | 10 to 15 min | Tremor (5/6) | >16 | >4 mg/kg | 0.1 to 0.5 mg/kg | 1.78 ± 1.94 min | Red urine (8/8) | 0.73 ± 0.43 min | 0 | > 1 µM | 0 | > 1 µM | 7.35 min | – | – | – | – | – | Adverse reactions: Hindlimb rigidity (incidence) (rats [5]): Hindlimb rigidity (1/8),
2 | C/C=C/C1(OC(=O)c2cncn2[C@H](C)c2ccccc2)COC1 [Compound D42] | 323 s | 3 to 4 min | 12 to 16 min | Tremor (6/6) | >12 | >9 mg/kg | 0.5 to 1 mg/kg | 2.50 ± 1.18 min | Red urine (8/8) | 0.13 ± 0.02 min | 0 | > 1 µM | 0 | > 1 µM | 5.38 min | – | – | – | – | – | –
3 | C=C=CC1(OC(=O)c2cncn2[C@H](C)c2ccccc2)CCCCC1 [Compound D43] | 117 s | 2 to 3 min | 11 to 14 min | Tremor (4/6) | >13 | >1 mg/kg | 0.01 to 0.1 mg/kg | 1.45 ± 0.78 min | Red urine (8/8) | 0.22 ± 0.07 min | 0 | > 10 µM | 0 | > 10 µM | 1.95 min | – | – | – | – | – | Adverse reactions: Hindlimb rigidity (incidence) (rats [5]): Hindlimb rigidity (2/8),
4 | COCC1(COC(=O)c2c(F)ncn2[C@H](C)c2ccccc2)CCC1 [Compound E2] | 129 s | – | – | – | >25 | >5 mg/kg | 0.1 to 0.5 mg/kg | 2.20 ± 1.11 min | (8/8) | 0.23 ± 0.07 min | – | > 10 µM | – | > 10 µM | 2.15 min | 3 to 4 min | 11 to 13 min | Tremor (2/6) | 0 | 0 | –
5 | CC(=O)C(C)(C)OC(=O)c1c(F)ncn1[C@H](C)c1ccccc1 [Compound E6] | 174 s | – | – | – | >24 | >10 mg/kg | 0.5 to 1 mg/kg | 2.73 ± 1.08 min | urine (8/8) | 0.13 ± 0.04 min | – | > 10 µM | – | > 10 µM | 2.90 min | 2 to 3 min | 9 to 11 min | Tremor (4/6) | 0 | 0 | Adverse reactions: Tremor (incidence) (rats [5]): (1/8), Red
6 | C[C@H](c1ccccc1)n1cnc(F)c1C(=O)OCC1CC1 [Compound E8] | 120 s | – | – | – | >22 | >4 mg/kg | – | 1.90 ± 0.82 min | (8/8) | 0.38 ± 0.06 min | – | – | – | – | 2.00 min | 3 to 4 min | 12 to 14 min | Tremor (1/6), Tongue stretching (4/6) | 0 | 0 | ED50 (mg/kg) (rats [4]): B (B means that the measured ED50 is in the range of 0.10-0.50 mg/kg (excluding 0.10 mg/kg, including 0.50 mg/kg).); Sedation duration (mg/kg) (rats [5]): 7.12 ± 0.81; EC50 [6, 10]: > 0.1 µM; EC50 [7, 10]: > 0.1 µM
7 | CC#CCOC(=O)c1c(F)ncn1[C@H](C)c1ccccc1 [Compound E35] | 151 s | – | – | – | >17 | >4 mg/kg | 0.1 to 0.5 mg/kg | 2.30 ± 0.80 min | urine (8/8) | 0.32 ± 0.11 min | – | > 10 µM | – | > 10 µM | 2.52 min | 2 to 3 min | 10 to 13 min | Tongue stretching (2/6), Tremor (3/6) | 0 | 0 | Adverse reactions: Tremor (incidence) (rats [5]): (4/8), Red
8 | C=C=CC1(OC(=O)c2c(F)ncn2[C@H](C)c2ccccc2)COC1 [Compound E37] | 100 s | – | – | – | >30 | >0.6 mg/kg | – | 1.75 ± 0.26 min | (8/8) | 0.25 ± 0.15 min | – | – | – | – | 1.67 min | 2 to 3 min | 7 to 10 min | Tremor (2/6) | 0 | 0 | ED50 (mg/kg) (rats [4]): A (A indicates that the measured ED50 is in the range of 0.01-0.10 mg/kg (including 0.01 and 0.10 mg/kg).); Sedation duration (mg/kg) (rats [5]): 3.66 ± 1.12; EC50 [6, 10]: > 10 µM; EC50 [7, 10]: > 10 µM
